Measured values from ChEMBL document CHEMBL1201862, “PubChem BioAssay data set” (2004).
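Compound exposure: 48 hours, 5 concentrations, 96-well plates. GI50: concentration for 50% inhibition of growth.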 The source made the active and inactive calls. Cut-off read from the data, not from the text of the source: active = GI50 up to about 1.1 µM and inactive = higher.

How the values were obtained:
Experiment in all cases: DTP human tumour cell line panel, 48 h
HT-29 = test system: HT-29
NCI-H23 = test system: NCI-H23
A498 = test system: A498
SK-MEL-28 = test system: SK-MEL-28
OVCAR-3 = test system: OVCAR-3
HCT-116 = test system: HCT-116
SN12C = test system: SN12C
K562 = test system: K562
786-0 = test system: 786-0
HOP-62 = test system: HOP-62
SNB-19 = test system: SNB-19
Malme-3M = test system: Malme-3M
RPMI-8226 = test system: RPMI-8226
UACC-62 = test system: UACC-62
SF-539 = test system: SF-539
OVCAR-5 = test system: OVCAR-5

Measured: GI50

C#CCSc1nc(N)c2ncn(C3OC(CO)C(O)C3O)c2n1 (centres undefined)
inactive: HT-29 > 100 µM | NCI-H23 > 100 µM | A498 > 100 µM | SK-MEL-28 > 100 µM | OVCAR-3 > 100 µM | HCT-116 > 100 µM | SN12C > 100 µM | K562 > 100 µM | 786-0 > 100 µM | HOP-62 > 100 µM | SNB-19 > 100 µM | Malme-3M > 100 µM | RPMI-8226 > 100 µM

Cc1ccc(/C=C/C(=O)c2sc(-c3nc(C)c(C(=O)/C=C/c4ccc(C)cc4)s3)nc2C)cc1
inactive: HT-29 > 100 µM | NCI-H23 > 100 µM | A498 > 100 µM | SK-MEL-28 > 100 µM | UACC-62 > 100 µM | OVCAR-3 > 100 µM | SN12C > 100 µM | SF-539 > 100 µM | K562 > 100 µM | 786-0 > 100 µM | HOP-62 > 100 µM | Malme-3M > 100 µM | RPMI-8226 > 100 µM | OVCAR-5 > 100 µM

O=c1ncccn1C1C=C(CO)C(O)C1O (centres undefined)
inactive: HT-29 > 50 µM | NCI-H23 > 50 µM | A498 > 50 µM | SK-MEL-28 > 50 µM | OVCAR-3 > 50 µM | SF-539 > 50 µM | K562 > 50 µM | 786-0 > 50 µM | HOP-62 > 50 µM | SNB-19 > 50 µM | Malme-3M > 50 µM | RPMI-8226 > 50 µM | OVCAR-5 > 50 µM

O=C(c1ccccc1)c1ccc(OCCOc2ccc(Nc3ccccc3)cc2)cc1
inactive: NCI-H23 46.8 µM | A498 27.4 µM | SK-MEL-28 73.3 µM | UACC-62 63.4 µM | OVCAR-3 37.2 µM | HCT-116 69.2 µM | SN12C 42.3 µM | SF-539 24.5 µM | K562 > 100 µM | 786-0 25 µM | HOP-62 23.9 µM | SNB-19 27.7 µM | Malme-3M 19.2 µM | OVCAR-5 > 100 µM

CCOP12(OCC)NC(=O)OC1(C(F)(F)F)c1ccccc1O2 (centres undefined)
inactive: HT-29 > 100 µM | NCI-H23 > 100 µM | SK-MEL-28 > 100 µM | UACC-62 > 100 µM | OVCAR-3 > 100 µM | HCT-116 > 100 µM | SN12C > 100 µM | SF-539 > 100 µM | K562 > 100 µM | 786-0 > 100 µM | SNB-19 > 100 µM | Malme-3M > 100 µM

CC1=NN(c2ccccc2)C(=O)/C1=C\c1ccc([N+](=O)[O-])cc1
inactive: HT-29 28.3 µM | NCI-H23 27.9 µM | A498 11.4 µM | SK-MEL-28 36.6 µM | UACC-62 21.7 µM | SN12C 32.1 µM | SF-539 22.4 µM | K562 28.6 µM | 786-0 29.1 µM | SNB-19 30.5 µM | Malme-3M 23.9 µM | RPMI-8226 23.6 µM | OVCAR-5 24.5 µM

CN(CCO)c1nc(N)cc(=O)[nH]1
inactive: HT-29 > 100 µM | NCI-H23 > 100 µM | SK-MEL-28 > 100 µM | UACC-62 > 100 µM | OVCAR-3 > 100 µM | HCT-116 > 100 µM | SN12C > 100 µM | SF-539 > 100 µM | K562 > 100 µM | 786-0 > 100 µM | HOP-62 > 100 µM | SNB-19 > 100 µM | Malme-3M > 100 µM | RPMI-8226 > 100 µM | OVCAR-5 > 100 µM

O=C1Oc2cc3c(c4cccc1c24)OCN(c1ccccc1)C3
inactive: HT-29 > 100 µM | NCI-H23 > 100 µM | A498 > 100 µM | SK-MEL-28 > 100 µM | UACC-62 36.5 µM | OVCAR-3 > 100 µM | HCT-116 > 100 µM | SN12C > 100 µM | K562 23.2 µM | 786-0 > 100 µM | HOP-62 > 100 µM | SNB-19 > 100 µM | Malme-3M > 100 µM | RPMI-8226 35.1 µM | OVCAR-5 > 100 µM

CC(C)CN1CC(C)C(=O)NC1=O (centres undefined)
inactive: HT-29 > 100 µM | NCI-H23 > 100 µM | A498 > 100 µM | SK-MEL-28 > 100 µM | UACC-62 > 100 µM | SN12C > 100 µM | SF-539 > 100 µM | K562 > 100 µM | 786-0 > 100 µM | HOP-62 > 100 µM | SNB-19 > 100 µM | Malme-3M > 100 µM | OVCAR-5 > 100 µM

C=C1CCC2(C(C)=O)COC1(C)O2 (centres undefined)
inactive: HT-29 > 100 µM | NCI-H23 > 10 µM | SK-MEL-28 > 100 µM | UACC-62 > 100 µM | OVCAR-3 > 100 µM | HCT-116 > 100 µM | SN12C > 100 µM | SF-539 > 100 µM | K562 > 100 µM | 786-0 > 100 µM | HOP-62 > 100 µM | SNB-19 > 100 µM | Malme-3M > 100 µM | RPMI-8226 > 100 µM

CCOC(=O)NC(=O)c1cn(-c2ccc(CCOC(=O)CCCCCCCCC(=O)OCCc3ccc(-n4cc(C(=O)NC(=O)OCC)c(=O)[nH]c4=O)cc3)cc2)c(=O)[nH]c1=O
inactive: HT-29 > 100 µM | NCI-H23 > 100 µM | SK-MEL-28 > 100 µM | UACC-62 > 100 µM | OVCAR-3 > 100 µM | HCT-116 > 100 µM | SN12C > 100 µM | SF-539 > 100 µM | K562 > 100 µM | 786-0 > 100 µM | HOP-62 > 100 µM | SNB-19 59 µM | Malme-3M > 100 µM | RPMI-8226 > 100 µM | OVCAR-5 > 100 µM

COc1c(CC(C)=O)c2ccccc2n1C(C)=O
inactive: HT-29 > 100 µM | NCI-H23 > 100 µM | A498 > 100 µM | SK-MEL-28 > 100 µM | UACC-62 > 100 µM | OVCAR-3 > 100 µM | HCT-116 > 100 µM | SN12C > 100 µM | SF-539 > 100 µM | K562 > 100 µM | 786-0 > 100 µM | HOP-62 > 100 µM | SNB-19 > 100 µM | RPMI-8226 > 100 µM

C/C(CC(=O)Nc1cccc(Cl)c1C)=N\NC(N)=S
inactive: HT-29 > 100 µM | NCI-H23 > 100 µM | A498 > 100 µM | SK-MEL-28 > 100 µM | UACC-62 > 100 µM | OVCAR-3 > 100 µM | HCT-116 > 100 µM | SF-539 > 100 µM | K562 > 100 µM | 786-0 > 100 µM | HOP-62 > 100 µM | Malme-3M > 100 µM | RPMI-8226 > 100 µM | OVCAR-5 > 100 µM

COC1C2c3ccccc3C(C#N)(Cc3ccc4c(c32)OCO4)N1C(=O)c1ccccc1 (centres undefined)
inactive: HT-29 48 µM | NCI-H23 62.2 µM | SK-MEL-28 90.8 µM | UACC-62 3.37 µM | OVCAR-3 42.5 µM | HCT-116 37.6 µM | SN12C > 100 µM | SF-539 > 100 µM | K562 5.11 µM | 786-0 98.6 µM | HOP-62 14.4 µM | SNB-19 46.6 µM | Malme-3M 37.8 µM | RPMI-8226 16.3 µM | OVCAR-5 > 100 µM
